In patent EP1206476B1, “9A-AZALIDES WITH ANTIBACTERIAL ACTIVITY” (ABBOTT LABORATORIES, priority 1999, dated 2001):

Key:
Assay in all cases: In vitro assay of antibacterial activity (agar dilution MIC)
Format in all cases: cell-based
[1] = system: Streptococcus Pneumonia ATCC 6303; conditions: code XX = Streptococcus Pneumonia ATCC 6303; BHI agar, 35-37 °C, 20 to 24 hours; unit assumed
Description: (§1) Representative compounds of the present invention were assayed in vitro for antibacterial activity as follows: Twelve petri dishes containing successive aqueous dilutions of the test compound mixed with 10 mL of sterilized Brain Heart Infusion (BHI) agar (Difco 0418-01-5) were prepared. Each plate was inoculated with 1:100 (or 1:10 for slow-growing strains, such as Micrococcus and Streptococcus) dilutions of up to 32 different microorganisms, using a Steers replicator block. The inoculated plates were incubated at 35-37 °C for 20 to 24 hours. In addition, a control plate, using BHI agar containing no test compound, was prepared and incubated at the beginning and end of each test.
(§2) An additional plate containing a compound having known susceptibility patterns for the organisms being tested and belonging to the same antibiotic class as the test compound was also prepared and incubated as a further control, as well as to provide test-to-test comparability. Erythromycin A was used for this purpose.
(§3) After incubation, each plate was visually inspected. The minimum inhibitory concentration (MIC) was defined as the lowest concentration of drug yielding no growth, a slight haze, or sparsely isolated colonies on the inoculum spot as compared to the growth control.

[2] = system: Nocardia Asteroides ATCC 99700; conditions: code VV = Nocardia Asteroides ATCC 99700; BHI agar, 35-37 °C, 20 to 24 hours; unit assumed
Description: as §1, §2, §3

[3] = system: Streptococcus pyogenes PIU 2548; conditions: code NN = Streptococcus pyogenes PIU 2548; BHI agar, 35-37 °C, 20 to 24 hours; unit assumed
Description: as §1, §2, §3

[4] = system: Streptococcus Pneumonia GYR 1171; conditions: code YY = Streptococcus Pneumonia GYR 1171; BHI agar, 35-37 °C, 20 to 24 hours; unit assumed
Description: as §1, §2, §3

[5] = system: Staphylococcus aureus A-5278; conditions: code CC = Staphylococcus aureus A-5278; BHI agar, 35-37 °C, 20 to 24 hours; unit assumed
Description: as §1, §2, §3

[6] = system: Micrococcusluteus ATCC 4698; conditions: code PP = Micrococcusluteus ATCC 4698; BHI agar, 35-37 °C, 20 to 24 hours; unit assumed
Description: as §1, §2, §3

[7] = system: Staphylococcus aureus 1775; conditions: code GG = Staphylococcus aureus 1775; BHI agar, 35-37 °C, 20 to 24 hours; unit assumed
Description: as §1, §2, §3

[8] = system: Streptococcus pyogenes 930; conditions: code MM = Streptococcus pyogenes 930; BHI agar, 35-37 °C, 20 to 24 hours; unit assumed
Description: as §1, §2, §3

Escherichiacoli SS = conditions: code RR = Escherichiacoli SS; BHI agar, 35-37 °C, 20 to 24 hours; unit assumed
Description: as §1, §2, §3

[9] = system: Streptococcus Pneumonia 5649; conditions: code ZA = Streptococcus Pneumonia 5649; BHI agar, 35-37 °C, 20 to 24 hours; unit assumed
Description: as §1, §2, §3

[10] = system: Staphylococcus aureus A-5177; conditions: code BB = Staphylococcus aureus A-5177; BHI agar, 35-37 °C, 20 to 24 hours; unit assumed
Description: as §1, §2, §3

[11] = system: Mycobacterium smegmatis ATCC 114; conditions: code UU = Mycobacterium smegmatis ATCC 114; BHI agar, 35-37 °C, 20 to 24 hours; unit assumed
Description: as §1, §2, §3

[12] = system: Staphylococcus epidermidis 3519; conditions: code HH = Staphylococcus epidermidis 3519; BHI agar, 35-37 °C, 20 to 24 hours; unit assumed
Description: as §1, §2, §3

[13] = system: Staphylococcus aureus ATCC 6538P; conditions: code AA = Staphylococcus aureus ATCC 6538P; BHI agar, 35-37 °C, 20 to 24 hours; unit assumed
Description: as §1, §2, §3

[14] = system: Streptococcus pyogenes EES61; conditions: code LL = Streptococcus pyogenes EES61; BHI agar, 35-37 °C, 20 to 24 hours; unit assumed
Description: as §1, §2, §3

[15] = system: Staphylococcus aureus NCTC 10649M; conditions: code EE = Staphylococcus aureus NCTC 10649M; BHI agar, 35-37 °C, 20 to 24 hours; unit assumed
Description: as §1, §2, §3

[16] = system: Streptococcus agalactiae CMX 508; conditions: code KK = Streptococcus agalactiae CMX 508; BHI agar, 35-37 °C, 20 to 24 hours; unit assumed
Description: as §1, §2, §3

Candida albicans CCH 442 = conditions: code TT = Candida albicans CCH 442; BHI agar, 35-37 °C, 20 to 24 hours; unit assumed
Description: as §1, §2, §3

[17] = system: Streptococcus bovis A-5169; conditions: code JJ = Streptococcus bovis A-5169; BHI agar, 35-37 °C, 20 to 24 hours; unit assumed
Description: as §1, §2, §3

Escherichiacoli JUHL = conditions: code QQ = Escherichiacoli JUHL; BHI agar, 35-37 °C, 20 to 24 hours; unit assumed
Description: as §1, §2, §3

[18] = system: Haemophilislnfluenzae DILL AMP R; conditions: code WW = Haemophilislnfluenzae DILL AMP R; BHI agar, 35-37 °C, 20 to 24 hours; unit assumed
Description: as §1, §2, §3

[19] = system: Streptococcus Pneumonia 5979; conditions: code ZZ = Streptococcus Pneumonia 5979; BHI agar, 35-37 °C, 20 to 24 hours; unit assumed
Description: as §1
An additional plate containing a compound having known susceptibility patterns for the organisms being tested and belonging to the same antibiotic class as the test compound was also prepared and incubated as a further control, as well as to provide test-to-test comparability.
as §3

Row | Compound | Antibacterial Activity (MIC's) [1] [µg/mL] | Antibacterial Activity (MIC's) [2] [µg/mL] | Antibacterial Activity (MIC's) [3] [µg/mL] | Antibacterial Activity (MIC's) [4] [µg/mL] | Antibacterial Activity (MIC's) [5] [µg/mL] | Antibacterial Activity (MIC's) [6] [µg/mL] | Antibacterial Activity (MIC's) [7] [µg/mL] | Antibacterial Activity (MIC's) [8] [µg/mL] | Antibacterial Activity (MIC's) (Escherichiacoli SS) [µg/mL] | Antibacterial Activity (MIC's) [9] [µg/mL] | Antibacterial Activity (MIC's) [10] [µg/mL] | Antibacterial Activity (MIC's) [11] [µg/mL] | Antibacterial Activity (MIC's) [12] [µg/mL] | Antibacterial Activity (MIC's) [13] [µg/mL] | Antibacterial Activity (MIC's) [14] [µg/mL] | Antibacterial Activity (MIC's) [15] [µg/mL] | Antibacterial Activity (MIC's) [16] [µg/mL] | Antibacterial Activity (MIC's) (Candida albicans CCH 442) [µg/mL] | Antibacterial Activity (MIC's) [17] [µg/mL] | Antibacterial Activity (MIC's) (Escherichiacoli JUHL) [µg/mL] | other results
1 | CC[C@H]1OC(=O)[C@H](C)[C@@H](O[C@H]2C[C@@](C)(OC)[C@@H](O)[C@H](C)O2)[C@H](C)[C@@H](O[C@@H]2O[C@H](C)C[C@H](N(C)C)[C@H]2O)[C@](C)(O)C[C@@H](C)C(=O)[C@H](C)[C@@H](O)[C@]1(C)O [Ery. A standard, Erythromycin A, reference compound] | 0.06 | 0.1 | 6.2 | 0.06 | > 100 | 0.2 | > 100 | > 100 | 0.78 | 16 | 3.1 | 3.1 | 0.39 | 0.2 | 0.05 | 0.39 | 0.05 | > 100 | 0.02 | > 100 | Antibacterial Activity (MIC's) [18]: 4 µg/mL
2 | C=CCO[C@]1(C)C[C@@H](C)CN[C@H](C)[C@@H](O)[C@](C)(O)[C@@H](CC)OC(=O)[C@H](C)[C@@H](O[C@H]2C[C@@](C)(OC)[C@@H](O)[C@H](C)O2)[C@H](C)[C@H]1O[C@@H]1O[C@H](C)C[C@H](N(C)C)[C@H]1O [Example 2] | 0.06 | 0.1 | 6.2 | 0.06 | > 100 | 0.39 | > 100 | > 100 | 0.78 | 16 | 12.5 | 6.2 | 0.2 | 0.2 | 0.05 | 0.39 | 0.05 | > 100 | 0.02 | 50 | Antibacterial Activity (MIC's) [19]: > 128 µg/mL; Antibacterial Activity (MIC's) [18]: 8 µg/mL
